Some test systems named below: UACC-257 melanoma; OVCAR-3 ovarian; A498 renal; MOLT-4 leukemia; SK-MEL-28 melanoma; NCI-H522 lung; SNB-19 CNS; CAKI-1 renal; MDA-MB-435; NCI-H23 lung.
What all share (assay): growth of human tumour cells (NCI), 48 h

Where “and” joins values, the source holds several entries; their conditions need not be identical. Identical values can stand only once.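 These data come from cells grown in 96-well plates and exposed to compound for 48 hours at five concentrations. GI50 is the concentration that inhibits growth by half. TGI denotes the concentration required for complete inhibition of growth.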

As to `COc1cc(-c2c(C#N)c(N)nc(N3CCOCC3)c2C#N)cc(OC)c1OC`, the GI50 with UACC-257 melanoma was more than 100 µM; in the assay with OVCAR-3 ovarian, 68.8 µM; in the assay on A498 renal, more than 100 µM; in the assay with MOLT-4 leukemia, more than 100 µM; in the assay with SK-MEL-28 melanoma, more than 100 µM; in the assay on NCI-H522 lung, more than 100 µM. Also, the results for the GI50 in the assay on SNB-19 CNS, in the assay on CAKI-1 renal and in the assay on MDA-MB-435 were 89.9 µM, more than 100 µM and more than 100 µM, respectively. In addition, the TGI in the assay on UACC-257 melanoma, with OVCAR-3 ovarian, with A498 renal, with MOLT-4 leukemia, in the assay on SK-MEL-28 melanoma and in the assay on NCI-H522 lung was more than 100 µM in each case. Also, the TGI in the assay on SNB-19 CNS, in the assay with CAKI-1 renal and with MDA-MB-435 was more than 100 µM throughout.

Consider `Cc1c(O)c2c(c(O)c1Br)C(=O)C=CC2=O`, for which the GI50 was 0.924 µM in the assay on UACC-257 melanoma; 0.241 µM in the assay with OVCAR-3 ovarian; 1.48 µM in the assay on NCI-H23 lung; 1.59 µM in the assay with SK-MEL-28 melanoma; 0.179 µM with NCI-H522 lung; 0.16 µM in the assay with CAKI-1 renal. Besides, the TGI in the assay on UACC-257 melanoma was 2.52 µM and 2.22 µM; in the assay with OVCAR-3 ovarian it was 1.9 µM and 0.788 µM; with A498 renal it was 3.18 µM and 3.87 µM; in the assay with NCI-H23 lung, 2.09 µM and 3.28 µM; with MOLT-4 leukemia, 0.101 µM; with SK-MEL-28 melanoma, 2.33 µM and 3.07 µM. Further, the TGI is 0.337 µM and 0.365 µM in the assay on NCI-H522 lung; 3.74 µM in the assay with SNB-19 CNS; 0.894 µM and 0.382 µM with CAKI-1 renal; 0.451 µM with MDA-MB-435.

With `COc1ccc(C2=NN(C(=O)c3cc(OC)c(OC)c(OC)c3)C(c3ccc(N(C)C)cc3)C2)cc1` (centres undefined), the GI50 was 97.6 µM with UACC-257 melanoma; 0.284 µM in the assay with OVCAR-3 ovarian; 0.337 µM in the assay with A498 renal; 1 µM with NCI-H23 lung; 3.87 µM with MOLT-4 leukemia; 0.511 µM with SK-MEL-28 melanoma. Moreover, the GI50 was 0.352 µM with NCI-H522 lung, 1.84 µM with SNB-19 CNS and 0.205 µM in the assay on MDA-MB-435. Also, the TGI in the assay with UACC-257 melanoma was more than 100 µM; with OVCAR-3 ovarian it was 4.7 µM; with A498 renal it was 9.23 µM; in the assay with NCI-H23 lung, more than 100 µM; in the assay on MOLT-4 leukemia, more than 100 µM; in the assay with SK-MEL-28 melanoma it was more than 59.5 µM. For the same compound, the TGI with SNB-19 CNS was more than 100 µM; in the assay on MDA-MB-435, 0.478 µM.

On to `CCOc1cccc(-c2nc(N)nc(Nc3ccccc3SSc3ccccc3Nc3nc(N)nc(-c4cccc(OCC)c4)n3)n2)c1`, for which the GI50 with UACC-257 melanoma is more than 100 µM; with OVCAR-3 ovarian, 5.37 µM; in the assay on A498 renal, 8.24 µM; in the assay on NCI-H23 lung it was 3.79 µM; in the assay on MOLT-4 leukemia it was 2.61 µM; in the assay on SK-MEL-28 melanoma, 10.7 µM. Besides, the GI50 is 7.77 µM with NCI-H522 lung, 4.94 µM in the assay with SNB-19 CNS, 3.29 µM in the assay with CAKI-1 renal and 8.1 µM in the assay on MDA-MB-435. For the same compound, the TGI with UACC-257 melanoma, with OVCAR-3 ovarian, in the assay with A498 renal, with NCI-H23 lung, with MOLT-4 leukemia and with SK-MEL-28 melanoma was more than 100 µM each time. Moreover, the TGI in the assay with NCI-H522 lung is 48.9 µM; in the assay with SNB-19 CNS, more than 100 µM; with CAKI-1 renal, 28.3 µM; with MDA-MB-435 it was more than 100 µM.

On to `COc1cc2c(cc1Nc1nc(Nc3cccc(F)c3C(N)=O)c3cc[nH]c3n1)N(C(=O)CN1CCN(C(C)C)CC1)CC2`, for which the GI50 is 2.98 µM in the assay with UACC-257 melanoma; 4.52 µM in the assay with OVCAR-3 ovarian; 2.43 µM in the assay on A498 renal; 3.36 µM in the assay with NCI-H23 lung; 4.74 µM in the assay on MOLT-4 leukemia; 3.7 µM in the assay with SK-MEL-28 melanoma. Also, the GI50 in the assay on NCI-H522 lung was 3.89 µM; in the assay with SNB-19 CNS, 4.11 µM; in the assay on CAKI-1 renal, 4.94 µM; in the assay on MDA-MB-435 it was 3.12 µM. Besides, the TGI came out at 6.3 µM in the assay with UACC-257 melanoma; 8.69 µM in the assay on OVCAR-3 ovarian; 3.68 µM with A498 renal; 7.05 µM in the assay with NCI-H23 lung; 10.7 µM in the assay with MOLT-4 leukemia; 7.02 µM in the assay on SK-MEL-28 melanoma. Also, the TGI came out at 7.69 µM in the assay on NCI-H522 lung, 8.27 µM with SNB-19 CNS, 11.9 µM in the assay with CAKI-1 renal and 6.98 µM in the assay on MDA-MB-435.

With `CCCCCCCCC(=O)OCC(CS[As](C)C)OC(=O)CCCCCCCC` (centres undefined), the GI50 in the assay with UACC-257 melanoma was 1.4 µM; with OVCAR-3 ovarian, 0.191 µM; in the assay on A498 renal it was 2.38 µM; in the assay with NCI-H23 lung, 0.593 µM; with MOLT-4 leukemia, 0.326 µM; in the assay with SK-MEL-28 melanoma, 1.12 µM. Moreover, the GI50 in the assay on NCI-H522 lung is 1.11 µM; in the assay on SNB-19 CNS, 11.5 µM; in the assay with CAKI-1 renal it was 0.22 µM; with MDA-MB-435, 0.196 µM. The TGI was determined as 15.3 µM in the assay with UACC-257 melanoma; 0.583 µM in the assay on OVCAR-3 ovarian; 10.7 µM with A498 renal; 1.5 µM with NCI-H23 lung; 2.21 µM in the assay on MOLT-4 leukemia; 16.2 µM with SK-MEL-28 melanoma. The TGI was 42.9 µM in the assay with SNB-19 CNS, 1.12 µM with CAKI-1 renal and 0.652 µM in the assay with MDA-MB-435.

Regarding `Cc1ccc2c(c1)S(=O)(=O)c1ccc3ccccc3c1N2`, the TGI with UACC-257 melanoma, in the assay on OVCAR-3 ovarian, in the assay with A498 renal, in the assay on NCI-H23 lung, in the assay on MOLT-4 leukemia and with SK-MEL-28 melanoma was more than 100 µM in each case. In addition, the TGI in the assay with NCI-H522 lung, with SNB-19 CNS, with CAKI-1 renal and in the assay on MDA-MB-435 was more than 100 µM throughout.

`CC1OC(OC2C(OC3CCC4(C)C(CCC5(C)C4CC=C4C6CC(C)(C)CCC6(C(=O)O)CCC45C)C3(C)CO)OCC(O)C2O)C(O)C(O)C1O` (centres undefined): the TGI was found to be 41.2 µM in the assay with UACC-257 melanoma; 81.9 µM in the assay on OVCAR-3 ovarian; 31.1 µM with A498 renal; 33.1 µM in the assay on NCI-H23 lung; 45.8 µM in the assay with MOLT-4 leukemia; 39.8 µM in the assay on SK-MEL-28 melanoma. Moreover, the TGI in the assay with NCI-H522 lung worked out at 28.8 µM; with SNB-19 CNS it was 32.3 µM; in the assay on CAKI-1 renal, 36.6 µM; with MDA-MB-435 it was 43 µM.

In the case of `COc1cc([N+](=O)[O-])c(OC)cc1-c1nc2sc(Cl)cn2c1/C=N/NC1=NCCN1`, the GI50 in the assay on UACC-257 melanoma was 2.23 µM; in the assay with OVCAR-3 ovarian, 0.882 µM; in the assay on A498 renal, 1.85 µM; in the assay on NCI-H23 lung, 0.937 µM; with NCI-H522 lung it was 2.93 µM; in the assay on CAKI-1 renal, 12.9 µM. Also, the GI50 in the assay on MDA-MB-435 is 3.65 µM. Besides, the TGI in the assay with UACC-257 melanoma is 4.43 µM; with OVCAR-3 ovarian it was 2.62 µM; with A498 renal it was 3.57 µM; in the assay with NCI-H23 lung, 2.42 µM; with NCI-H522 lung it was more than 29.7 µM; in the assay with CAKI-1 renal, 51.7 µM. Further, the TGI in the assay with MDA-MB-435 was more than 100 µM.

(Values after PubChem BioAssay (NCI).)
